pKd: −log10 of the molar value.
Columns and labels:
AmpC EC2 [1] = target: T1, AmpC EC2 (Escherichia coli, UniProt A7TUE6); assay: nitrocefin hydrolysis initial velocity at […] ([…] inhibition range for the set); type: biochemical
AmpC EC2 [2] = target: T1, AmpC EC2; assay: nitrocefin hydrolysis initial velocity at […] NADPH; type: biochemical
AmpC EC2 [3] = target: T1, AmpC EC2; assay: ITC (KD […]); also steady-state nitrocefin kinetics (competitive, Ki […]); type: binding
CMY-2 = target: T2, CMY-2 (Klebsiella pneumoniae, UniProt Q48434); assay: nitrocefin hydrolysis initial velocity at […] NADPH; type: biochemical
T2 construct: gene blaCMY-2

CMY-10 = target: T3, CMY-10 (Klebsiella aerogenes, UniProt Q99QC1); assay: nitrocefin hydrolysis initial velocity at […] NADPH; type: biochemical
T3 construct: gene blaCMY-10

SMILES	nitrocefin hydrolysis initial velocity at 2 mM (~15-55% inhibition range for the) (AmpC EC2 [1])	nitrocefin hydrolysis initial velocity at 2 mM NADPH (AmpC EC2 [2])	pKd (AmpC EC2 [3])	nitrocefin hydrolysis initial velocity at 2 mM NADPH (CMY-2)	nitrocefin hydrolysis initial velocity at 2 mM NADPH (CMY-10)
Cc1cc2nc3c(=O)[nH]c(=O)nc-3n(C[C@H](O)[C@H](O)[C@H](O)COP(=O)(O)OP(=O)(O)OC[C@H]3O[C@@H](n4cnc5c(N)ncnc54)[C@H](O)[C@@H]3O)c2cc1C [FAD]	all tested adenosine dinucleotides including FAD, NAD, NADP, and NADPH reduced the initial velocity of nitrocefin hydrolysis catalyzed by AmpC BER				
NC(=O)C1=CN([C@@H]2O[C@H](COP(=O)(O)OP(=O)(O)OC[C@H]3O[C@@H](n4cnc5c(N)ncnc54)[C@H](OP(=O)(O)O)[C@@H]3O)[C@@H](O)[C@H]2O)C=CC1 [NADPH]		NADPH also reduced the initial velocity of nitrocefin hydrolysis catalyzed by other class C β-lactamases including ACC-1, AmpC EC2, CMY-2, and CMY-10	4.40	NADPH also reduced the initial velocity of nitrocefin hydrolysis catalyzed by other class C β-lactamases including ACC-1, AmpC EC2, CMY-2, and CMY-10	NADPH also reduced the initial velocity of nitrocefin hydrolysis catalyzed by other class C β-lactamases including ACC-1, AmpC EC2, CMY-2, and CMY-10
NC(=O)c1ccc[n+]([C@@H]2O[C@H](COP(=O)([O-])OP(=O)(O)OC[C@H]3O[C@@H](n4cnc5c(N)ncnc54)[C@H](O)[C@@H]3O)[C@@H](O)[C@H]2O)c1 [NAD]	all tested adenosine dinucleotides including FAD, NAD, NADP, and NADPH reduced the initial velocity of nitrocefin hydrolysis catalyzed by AmpC BER				

Reference: paper PMC6308799, “In vitro and in vivo Inhibitory Activity of NADPH Against the AmpC BER Class C β-Lactamase” (Frontiers in Cellular and Infection Microbiology, 2018)
